Measured values: ChEMBL document CHEMBL5356980, “Linker optimization and activity validation of a cell surface vimentin targeted homo-dimeric peptoid antagonist for lung cancer stem cells” (Bioorg Med Chem, 2024)
pIC50, pKd: −log10 of the molar value. Activity calls are given as the source filed them. The rule behind the calls is not given here.

Assays:
NCI-H2009 = experiment: Antiproliferative activity against human NCI-H2009 cells expressing vimentin assessed as inhibition of cell growth incubated for 3 days by MTS assay; type: functional, cell-based; settings: NCI-H2009, 72 h
NCI-H1299 [1] = experiment: Induction of apoptosis in human NCI-H1299 cells assessed as viable cells at 20 uM incubated for 12 hrs by annexin V/PI staining based flow cytometry analysis (reference value: 94.6%); type: functional; settings: read-out: Activity
NCI-H1299 [2] = experiment: Antiproliferative activity against human NCI-H1299 cells assessed as inhibition of cell growth measured for 18 hrs by MTS assay; type: functional, cell-based
NCI-H460 [3] = experiment: Induction of apoptosis in human NCI-H460 cells assessed as early apoptotic cells at 10 uM incubated for 12 hrs by annexin V/PI staining based flow cytometry analysis (reference value: 0.00%); type: functional
NCI-H1299 [4] = experiment: Induction of apoptosis in human NCI-H1299 cells assessed as late apoptotic cells at 10 uM incubated for 12 hrs by annexin V/PI staining based flow cytometry analysis (reference value: 2.05%); type: functional
NCI-H460 [5] = experiment: Antiproliferative activity against human NCI-H460 cells expressing vimentin assessed as inhibition of cell growth incubated for 3 days by MTS assay; type: functional, cell-based; settings: NCI-H460, 72 h
NCI-H460 [6] = experiment: Inhibition of colony formation in human NCI-H460 cells incubated for 8 days by crystal violet staining based analysis; type: functional, cell-based
NCI-H460 [7] = experiment: Inhibition of colony formation in human NCI-H460 cells at 300 nM incubated for 8 days by crystal violet staining based analysis; type: functional, cell-based; settings: time 8.0 day
NCI-H1299 [8] = experiment: Induction of apoptosis in human NCI-H1299 cells assessed as necrotic cells at 10 uM incubated for 12 hrs by annexin V/PI staining based flow cytometry analysis (reference value: 2.62%); type: functional
HBEC3-KT = experiment: Antiproliferative activity against human HBEC3-KT cells assessed as inhibition of cell growth incubated for 3 days by MTS assay; type: toxicity, cell-based; settings: 72 h, time 3 day
NCI-H460 [9] = experiment: Inhibition of cell migration of human NCI-H460 cells incubated for 24 hrs by crystal violet staining based microscopic analysis; type: functional; settings: dose <= 10000.0 nM
NCI-H1299 [10] = experiment: Inhibition of cell migration of human NCI-H1299 cells assessed as reduction in wound distance at 10 uM incubated for 24 hrs by crystal violet staining based microscopic analysis; type: functional
NCI-H358 = experiment: Antiproliferative activity against human NCI-H358 cells expressing vimentin assessed as inhibition of cell growth incubated for 3 days by MTS assay; type: functional, cell-based; settings: NCI-H358, 72 h
NCI-H1299 [11] = experiment: Induction of apoptosis in human NCI-H1299 cells assessed as viable cells at 10 uM incubated for 12 hrs by annexin V/PI staining based flow cytometry analysis (reference value: 94.6%); type: functional; settings: read-out: Activity
NCI-H460 [12] = experiment: Induction of apoptosis in human NCI-H460 cells assessed as late apoptotic cells at 10 uM incubated for 12 hrs by annexin V/PI staining based flow cytometry analysis (reference value: 6.19%); type: functional
NCI-H1299 [13] = experiment: Antiproliferative activity against human NCI-H1299 cells assessed as inhibition of cell growth measured for 2 hrs by MTS assay; type: functional, cell-based; settings: NCI-H1299, 2 h
NCI-H460 [14] = experiment: Induction of apoptosis in human NCI-H460 cells assessed as late apoptotic cells at 20 uM incubated for 12 hrs by annexin V/PI staining based flow cytometry analysis (reference value: 6.19%); type: functional
NCI-H1299 [15] = experiment: Antiproliferative activity against human NCI-H1299 cells expressing vimentin assessed as inhibition of cell growth incubated for 3 days by MTS assay; type: functional, cell-based; settings: NCI-H1299, 72 h
NCI-H1299 [16] = experiment: Inhibition of colony formation in human NCI-H1299 cells incubated for 8 days by crystal violet staining based analysis; type: functional, cell-based
NCI-H1299 [17] = experiment: Induction of apoptosis in human NCI-H1299 cells assessed as early apoptotic cells at 20 uM incubated for 12 hrs by annexin V/PI staining based flow cytometry analysis (reference value: 0.73%); type: functional
NCI-H460 [18] = experiment: Induction of apoptosis in human NCI-H460 cells assessed as necrotic cells at 10 uM incubated for 12 hrs by annexin V/PI staining based flow cytometry analysis (reference value: 0.20%); type: functional
NCI-H1299 [19] = experiment: Induction of apoptosis in human NCI-H1299 cells assessed as late apoptotic cells at 20 uM incubated for 12 hrs by annexin V/PI staining based flow cytometry analysis (reference value: 2.05%); type: functional
NCI-H1299 [20] = experiment: Inhibition of cell migration of human NCI-H1299 cells incubated for 24 hrs by crystal violet staining based microscopic analysis; type: functional; settings: dose <= 10000.0 nM
NCI-H460 [21] = experiment: Induction of apoptosis in human NCI-H460 cells assessed as viable cells at 10 uM incubated for 12 hrs by annexin V/PI staining based flow cytometry analysis (reference value: 90.9%); type: functional; settings: read-out: Activity
NCI-H460 [22] = experiment: Induction of apoptosis in human NCI-H460 cells assessed as necrotic cells at 20 uM incubated for 12 hrs by annexin V/PI staining based flow cytometry analysis (reference value: 0.20%); type: functional
NCI-H460 [23] = experiment: Induction of apoptosis in human NCI-H460 cells assessed as viable cells at 20 uM incubated for 12 hrs by annexin V/PI staining based flow cytometry analysis (reference value: 90.9%); type: functional; settings: read-out: Activity
NCI-H460 [24] = experiment: Inhibition of cell migration of human NCI-H460 cells assessed as reduction in wound closure incubated for 24 hrs by crystal violet staining based microscopic analysis; type: functional; settings: NCI-H460, 24 h
NCI-H460 [25] = experiment: Inhibition of cell migration of human NCI-H460 cells assessed as reduction in wound distance at 10 uM incubated for 24 hrs by crystal violet staining based microscopic analysis; type: functional
NCI-H460 [26] = experiment: Induction of apoptosis in human NCI-H460 cells assessed as early apoptotic cells at 20 uM incubated for 12 hrs by annexin V/PI staining based flow cytometry analysis (reference value: 0.00%); type: functional
Vimentin = Vimentin (Homo sapiens, UniProt P08670); experiment: Binding affinity to his-tagged recombinant Vimentin (unknown origin) assessed as dissociation constant by ELISA analysis
Vimentin, sequence (P08670 whole entry): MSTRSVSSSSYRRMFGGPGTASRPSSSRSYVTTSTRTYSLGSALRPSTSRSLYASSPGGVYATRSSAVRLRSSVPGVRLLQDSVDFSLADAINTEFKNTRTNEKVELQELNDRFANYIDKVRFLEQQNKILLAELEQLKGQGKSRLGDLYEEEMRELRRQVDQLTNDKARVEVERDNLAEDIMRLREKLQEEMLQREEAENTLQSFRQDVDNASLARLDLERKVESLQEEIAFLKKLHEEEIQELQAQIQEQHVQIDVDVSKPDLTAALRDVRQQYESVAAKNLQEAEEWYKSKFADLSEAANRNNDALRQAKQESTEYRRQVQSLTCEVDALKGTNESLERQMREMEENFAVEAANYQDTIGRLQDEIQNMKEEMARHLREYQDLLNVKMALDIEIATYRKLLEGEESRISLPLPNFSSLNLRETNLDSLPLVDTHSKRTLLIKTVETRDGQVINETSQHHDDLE

NCI-H1299 [27] = experiment: Induction of apoptosis in human NCI-H1299 cells assessed as early apoptotic cells at 10 uM incubated for 12 hrs by annexin V/PI staining based flow cytometry analysis (reference value: 0.73%); type: functional
NCI-H1299 [28] = experiment: Inhibition of cell migration of human NCI-H1299 cells assessed as reduction in wound closure incubated for 24 hrs by crystal violet staining based microscopic analysis; type: functional; settings: NCI-H1299, 24 h
NCI-H1299 [29] = experiment: Induction of apoptosis in human NCI-H1299 cells assessed as necrotic cells at 20 uM incubated for 12 hrs by annexin V/PI staining based flow cytometry analysis (reference value: 2.62%); type: functional
NCI-H2122 = experiment: Antiproliferative activity against human NCI-H2122 cells expressing vimentin assessed as inhibition of cell growth incubated for 3 days by MTS assay; type: functional, cell-based; settings: NCI-H2122, 72 h
NCI-H1299 [30] = experiment: Antimigratory activity against human NCI-H1299 assessed as inhibition of cell migration incubated for 24 hrs by crystal violet staining based microscopic analysis; type: functional; settings: NCI-H1299, 24 h

## COCCN(CC(=O)N[C@@H](CCCCN)C(=O)N[C@H](C)C(=O)NCC(=O)NCCCCC(NC(=O)CNC(=O)[C@@H](C)NC(=O)[C@H](CCCCN)NC(=O)CN(CCOC)C(=O)CN(Cc1ccc2c(c1)OCO2)C(=O)CN(CC(C)C)C(=O)CN(CCCCN)C(=O)CN(CCCCN)C(=O)CN(CC(C)C)C(=O)CNc1cccc(C(=O)c2ccccc2)c1)C(N)=O)C(=O)CN(Cc1ccc2c(c1)OCO2)C(=O)CN(CC(C)C)C(=O)CN(CCCCN)C(=O)CN(CCCCN)C(=O)CN(CC(C)C)C(=O)CNc1ccc(C(=O)c2ccccc2)cc1 (some centres not stated)
NCI-H2009
  pIC50: 4.84
NCI-H1299 [1]
  viability at 20 µM: 21.3%
NCI-H1299 [2]
  Activity: inactive
NCI-H460 [3]
  Activity: 1.15%
NCI-H1299 [4]
  Activity: 8.1%
NCI-H460 [5]
  pIC50: 5.07
NCI-H460 [6]; NCI-H460, 192 h
  pIC50: 6.40
NCI-H460 [6]; time 8.0 day
  inhibition: Dose-Dependent Effect
NCI-H460 [7]
  inhibition: Active
NCI-H1299 [8]
  Activity: 0.98%
HBEC3-KT
  Activity: Non-Toxic
NCI-H460 [9]
  inhibition: Dose-Dependent Effect
NCI-H1299 [10]
  inhibition: Active
NCI-H358
  pIC50: 4.89
NCI-H1299 [11]
  viability at 10 µM: 50.5%
NCI-H460 [12]
  Activity: 15.3%
NCI-H1299 [13]
  pIC50: ~4.68
NCI-H460 [14]
  Activity: 45.5%
NCI-H1299 [15]
  pIC50: 5.17
NCI-H1299 [16]; NCI-H1299, 192 h
  pIC50: 6.10
NCI-H1299 [16]; time 8.0 day
  inhibition: Dose-Dependent Effect
NCI-H1299 [17]
  Activity: 0.46%
NCI-H460 [18]
  Activity: 1.3%
NCI-H1299 [19]
  Activity: 26%
NCI-H1299 [20]
  inhibition: Dose-Dependent Effect
NCI-H460 [21]
  viability at 10 µM: 62.2%
NCI-H460 [22]
  Activity: 12.8%
NCI-H460 [23]
  viability at 20 µM: 0.06%
NCI-H460 [24]
  pIC50: 5.40
NCI-H460 [25]
  inhibition: Active
NCI-H460 [26]
  Activity: 1.09%
Vimentin
  pKd: ~7.00
NCI-H1299 [27]
  Activity: 0.44%
NCI-H1299 [28]
  pIC50: 5.70
NCI-H1299 [29]
  Activity: 1.37%
NCI-H2122
  pIC50: 4.52
NCI-H1299 [30]
  pIC50: ~5.70
